Test results reported in US20260317309A1, “N-HETEROCYLIC GPCR RECEPTOR AGONISTS, PHARMACEUTICAL COMPOSITIONS COMPRISING THE SAME, AND METHODS FOR THEIR USE” (Carmot Therapeutics, Inc., priority 2022, published 2026).
pEC50: −log10 of the molar value.

Target: T1, human GLP-1 receptor (Homo sapiens, UniProt P43220)
T1 construct: expressed in transfected cells
Test: GLP-1R cAMP assay (cAMP accumulation in CHO cells stably overexpressing the human GLP-1 receptor, HitHunter kit)
Assay type: cell-based
Details: CHO cells stably overexpressing human GLP-1R, 30 min, 20-point dose response in triplicate
Procedure, shortened: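 CHO cells stably expressing the human receptor (10,000/well) in HBSS with 10 mM HEPES and 625 μM IBMX, given compound as a 20-point dose response in triplicate for 30 min. cAMP was read by luminescent enzyme-complementation detection after overnight incubation, and EC50 was fitted from dose-response curves.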

T1 sequence (P43220 24-463): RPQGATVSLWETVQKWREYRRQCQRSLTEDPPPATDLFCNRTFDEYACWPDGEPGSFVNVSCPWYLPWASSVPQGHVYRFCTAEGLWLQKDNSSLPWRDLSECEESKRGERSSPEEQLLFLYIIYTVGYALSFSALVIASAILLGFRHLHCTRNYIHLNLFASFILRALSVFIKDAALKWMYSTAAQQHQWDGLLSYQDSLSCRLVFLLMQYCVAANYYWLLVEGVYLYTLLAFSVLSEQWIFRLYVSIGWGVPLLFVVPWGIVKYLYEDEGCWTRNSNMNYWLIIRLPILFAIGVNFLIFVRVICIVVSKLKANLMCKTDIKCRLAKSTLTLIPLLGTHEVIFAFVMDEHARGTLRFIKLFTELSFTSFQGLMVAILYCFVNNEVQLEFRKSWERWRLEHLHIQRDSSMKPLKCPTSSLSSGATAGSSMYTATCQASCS

Compound | pEC50
C[C@@H](Cn1c(CN2CC[C@H](Oc3ccnc(COc4ccc(F)cc4F)n3)C[C@@H]2C)nc2ccc(C(=O)O)cc21)OC1CC1 [Compound 612, 1-((S)-2-cyclopropoxypropyl)-2-(((2S,4S)-4-((2-((2,4-difluorophenoxy)methyl)pyrimidin-4-yl)oxy)-2-methylpiperidin-1-yl)methyl)-1H-benzo[d]imidazole-6-carboxylic acid] | 8.00 to 9.00
O=C(O)c1cc(F)c2nc(CN3CCC(Oc4ccnc(COc5ncc(Cl)cc5F)c4)CC3)n(C[C@@H]3CCO3)c2c1 [Compound 613, (S)-2-((4-((2-(((5-Chloro-3-fluoropyridin-2-yl)oxy)methyl)pyridin-4-yl)oxy)piperidin-1-yl)methyl)-4-fluoro-1-(oxetan-2-ylmethyl)-1H-benzo[d]imidazole-6-carboxylic acid] | 9.00 to 10.00
C[C@H]1C[C@@H](Oc2ccnc(NCc3ccc(F)cc3F)n2)CCN1Cc1nc2ccc(C(=O)O)cc2n1C[C@@H]1CCO1 [Compound 614, 2-(((2S,4S)-4-((2-((2,4-Difluorobenzyl)amino)pyrimidin-4-yl)oxy)-2-methylpiperidin-1-yl)methyl)-1-(((S)-oxetan-2-yl)methyl)-1H-benzo[d]imidazole-6-carboxylic acid] | 9.00 to 10.00
C[C@H]1C[C@@H](Oc2ccnc(COc3ncc(Cl)cc3F)c2)CCN1Cc1nc2ccc(C(=O)O)cc2n1C[C@@H]1CCO1 [Compound 615, 2-(((2S,4S)-4-((2-(((5-Chloro-3-fluoropyridin-2-yl)oxy)methyl)pyridin-4-yl)oxy)-2-methylpiperidin-1-yl)methyl)-1-(((S)-oxetan-2-yl)methyl)-1H-benzo[d]imidazole-6-carboxylic acid] | 9.00 to 10.00
C[C@H]1C[C@@H](Oc2ccnc(COc3ccc(Cl)cn3)c2)CCN1Cc1nc2c(F)cc(C(=O)O)cc2n1C[C@@H]1CCO1 [Compound 616, 2-(((2S,4S)-4-((2-(((5-Chloropyridin-2-yl)oxy)methyl)pyridin-4-yl)oxy)-2-methylpiperidin-1-yl)methyl)-4-fluoro-1-(((S)-oxetan-2-yl)methyl)-1H-benzo[d]imidazole-6-carboxylic acid] | 9.00 to 10.00
C[C@H](Cn1c(CN2CC[C@H](Oc3ccnc(COc4ncc(F)cc4F)n3)C[C@@H]2C)nc2ccc(C(=O)O)cc21)OC(F)F [Compound 617, 1-((R)-2-(Difluoromethoxy)propyl)-2-(((2S,4S)-4-((2-(((3,5-difluoropyridin-2-yl)oxy)methyl)pyrimidin-4-yl)oxy)-2-methylpiperidin-1-yl)methyl)-1H-benzo[d]imidazole-6-carboxylic acid] | > 10.00
C[C@H](Cn1c(CN2CC[C@H](Oc3ccnc(COc4ccc(F)cc4F)n3)C[C@@H]2C)nc2ccc(C(=O)O)cc21)OC1CC1 [Compound 618, 1-((R)-2-cyclopropoxypropyl)-2-(((2S,4S)-4-((2-((2,4-difluorophenoxy)methyl)pyrimidin-4-yl)oxy)-2-methylpiperidin-1-yl)methyl)-1H-benzo[d]imidazole-6-carboxylic acid] | 9.00 to 10.00
C[C@H]1C[C@@H](Oc2ccnc(COc3ncc(F)cc3F)c2)CCN1Cc1nc2c(F)cc(C(=O)O)cc2n1C[C@@H]1CCO1 [Compound 619, 2-(((2S,4S)-4-((2-(((3,5-Difluoropyridin-2-yl)oxy)methyl)pyridin-4-yl)oxy)-2-methylpiperidin-1-yl)methyl)-4-fluoro-1-(((S)-oxetan-2-yl)methyl)-1H-benzo[d]imidazole-6-carboxylic acid] | 8.00 to 9.00
C[C@H](Cn1c(CN2CC[C@H](Oc3ccnc(COc4ncc(F)cc4F)n3)C[C@@H]2C)nc2c(F)cc(C(=O)O)cc21)OC(F)F [Compound 620, 1-((R)-2-(difluoromethoxy)propyl)-2-(((2S,4S)-4-((2-(((3,5-difluoropyridin-2-yl)oxy)methyl)pyrimidin-4-yl)oxy)-2-methylpiperidin-1-yl)methyl)-4-fluoro-1H-benzo[d]imidazole-6-carboxylic acid] | 9.00 to 10.00
C[C@H]1C[C@@H](Oc2ccnc(COc3ccc(F)cc3F)n2)CCN1Cc1nc2c(F)cc(C(=O)O)cc2n1C[C@@H]1CCCO1 [Compound 621, 2-(((2S,4S)-4-((2-((2,4-Difluorophenoxy)methyl)pyrimidin-4-yl)oxy)-2-methylpiperidin-1-yl)methyl)-4-fluoro-1-(((S)-tetrahydrofuran-2-yl)methyl)-1H-benzo[d]imidazole-6-carboxylic acid] | > 10.00
C[C@H]1C[C@@H](Oc2ccnc(COc3ncc(F)cc3F)n2)CCN1Cc1nc2c(F)cc(C(=O)O)cc2n1C[C@@H]1CCCO1 [Compound 622, 2-(((2S,4S)-4-((2-(((3,5-Difluoropyridin-2-yl)oxy)methyl)pyrimidin-4-yl)oxy)-2-methylpiperidin-1-yl)methyl)-4-fluoro-1-(((S)-tetrahydrofuran-2-yl)methyl)-1H-benzo[d]imidazole-6-carboxylic acid] | 9.00 to 10.00
C[C@H]1C[C@@H](Oc2ccnc(COc3ccc(F)cc3F)n2)CCN1Cc1nc2ccc(CCC(=O)O)cc2n1C[C@@H]1CCO1 [Compound 623, 3-(2-(((2S,4S)-4-((2-((2,4-difluorophenoxy)methyl)pyrimidin-4-yl)oxy)-2-methylpiperidin-1-yl)methyl)-1-(((S)-oxetan-2-yl)methyl)-1H-benzo[d]imidazol-6-yl) propanoic acid] | 8.00 to 9.00
C[C@H]1C[C@@H](Oc2ccnc(CNc3ncc(F)cc3Cl)n2)CCN1Cc1nc2ccc(C(=O)O)cc2n1C[C@@H]1CCO1 [Compound 624, 2-(((2S,4S)-4-((2-(((3-Chloro-5-fluoropyridin-2-yl)amino)methyl)pyrimidin-4-yl)oxy)-2-methylpiperidin-1-yl)methyl)-1-(((S)-oxetan-2-yl)methyl)-1H-benzo[d]imidazole-6-carboxylic acid] | 8.00 to 9.00
C[C@H]1C[C@@H](Oc2ccnc(COc3ncc(C#N)cc3F)c2)CCN1Cc1nc2c(F)cc(C(=O)O)cc2n1C[C@@H]1CCO1 [Compound 625, 2-(((2S,4S)-4-((2-(((5-Cyano-3-fluoropyridin-2-yl)oxy)methyl)pyridin-4-yl)oxy)-2-methylpiperidin-1-yl)methyl)-4-fluoro-1-(((S)-oxetan-2-yl)methyl)-1H-benzo[d]imidazole-6-carboxylic acid] | 8.00 to 9.00
C[C@H](Cn1c(CN2CC[C@H](Oc3ccnc(COc4ncc(C#N)cc4F)n3)C[C@@H]2C)nc2ccc(C(=O)O)cc21)OC(F)F [Compound 626, 2-(((2S,4S)-4-((2-(((5-cyano-3-fluoropyridin-2-yl)oxy)methyl)pyrimidin-4-yl)oxy)-2-methylpiperidin-1-yl)methyl)-1-((R)-2-(difluoromethoxy)propyl)-1H-benzo[d]imidazole-6-carboxylic acid] | 9.00 to 10.00
C[C@H](Cn1c(CN2CC[C@H](Oc3ccnc(COc4ncc(F)cc4C#N)n3)C[C@@H]2C)nc2ccc(C(=O)O)cc21)OC(F)F [Compound 627, 2-(((2S,4S)-4-((2-(((3-Cyano-5-fluoropyridin-2-yl)oxy)methyl)pyrimidin-4-yl)oxy)-2-methylpiperidin-1-yl)methyl)-1-((R)-2-(difluoromethoxy)propyl)-1H-benzo[d]imidazole-6-carboxylic acid] | 9.00 to 10.00
